Laboratory results: PMC4645160, “Targeting kinases with anilinopyrimidines: discovery of N-phenyl-N’-[4-(pyrimidin-4-ylamino)phenyl]urea derivatives as selective inhibitors of class III receptor tyrosine kinase subfamily” (Scientific Reports, 2015)

Legend:
panel of 48 kinases = experiment: KinomeScan primary screening (POC) at 10 μM; format: binding, human; details: POC values
Source text: Synthesized compounds were screened against a panel of 48 kinases selected within the ScanEDGE subset of DiscoverX (http://www.discoverx.com/services/drug-discovery-development-services/kinase-profiling/kinomescan/scanedge). The ScanEDGE includes 97 kinases and is an economical approach to assess compounds selectivity throughout the human kinome. All the wt-TKs along with some relevant mutants of Abl1 (T315I) and of EGFR (L858R and L858R/T790M) were chosen. The remaining 18 targets (3 Tyrosine Kinases-Like, TKLs; 15 Serine-Threonine Kinases, STKs) were selected among the remaining kinases in the ScanEDGE subset on the basis of their well established role in cancer (see Fig. S2 for a graphical representation of the selected kinases with reference to the kinome tree. Some references highlighting the role of each kinase in cancer are also reported in Table S3).
The compounds were evaluated using the KinomeScan™ platform (http://www.discoverx.com/services/drug-discovery-development-services/kinase-profiling/kinomescan), that measures the ability of the test compound to disrupt the complex between a high affinity ATP-mimic probe immobilized on a solid support and the kinase of interest. The KinomeScan is a very helpful technology for the fast and reliable screening of a number of compounds against a wide and customizable panel of kinases. Besides, it is not based on the use of hazardous radioactive ^32P-ATP and has a very low rate of false positive (<1%)[44]. The screening platform outputs a “Percent of Control” (POC) value, statistically correlated to the dissociation constant (Kd) value (http://www.discoverx.com/tools-resources/leadhunter-study-reports-data-analysis), for each pair of kinase/ligand. The POC is calculated as reported in equation (1):
Where: test compound signal = amount of kinase still binding the probe after treatment with test compound; negative control signal = amount of kinase still binding the probe after treatment with DMSO (100% control); positive control signal = amount of kinase still binding the probe after treatment with control compound (0% control).
The compounds were tested at high concentration (10 μM), in order to highlight not only the main target but also the off-targets. The results of the preliminary screening are reported as heat map (Fig. 4; see also Table S4 for all the measured values), in which the compounds are grouped on the basis of the 6 or 5 substituent at the pyrimidine ring.

[1] = tested on: Lewis Lung Carcinoma (LLC); experiment: In vivo anticancer activity toward Lewis Lung Carcinoma (LLC); details: LLC in C57BL mice, 27 at 7.5 mg/kg, CDDP at 1.5 mg/kg
Source text: (§1) Besides, it was as cytotoxic as 19 towards cancer cells while showing a more favorable selectivity index. On these basis, compound 27 was chosen for in vivo experiments against a syngeneic murine solid tumor model, the murine Lewis Lung Carcinoma (LLC). The tumor growth inhibition induced by 27 was compared with that promoted by cisplatin (CDDP), the most common chemotherapeutic drug used in the treatment of lung cancers. Nine days after tumor inoculation, tumor-bearing mice were randomized into vehicle control and treatment groups (8 mice per group). Control mice received the vehicle (0.2%v/v EtOH and 99.8%v/v of a saline solution), whereas treated groups received daily doses of 27 (7.5 mg · kg^−1 in the vehicle solution composed of 0.2%v/v EtOH and 99.8%v/v of saline solution) or CDDP (1.5 mg · kg^−1 in saline solution). Tumor growth was estimated at day 20 (Fig. 7a). As an indication of the adverse side effects, changes in the body weights of tumor-bearing mice were monitored at day 1 and daily from day 9.
Figure 7 In vivo testing of compound 27. Lewis lung carcinoma (LLC) was implanted i.m. (2 · 10^6 cells inoculum) into the right hind leg of 8-week old imbred C57BL mice. Nine days after tumor inoculation (palpable tumor), tumor-bearing mice were randomized into vehicle control and treatment groups (8 mice per group). Compound 27 was dosed daily at 7.5 mg/kg ip and CDDP was dosed daily at 1.5 mg/kg ip. At day 20, animals were sacrificed (i.e., before tumor can cause the animal discomfort), the legs were amputated at the proximal end of the femur, and the inhibition of tumor growth was determined according to the difference in weight of the tumor-bearing leg and the healthy leg of the animals expressed as % referred to the control animals. Control was constituted by vehicle (0.2%v/v EtOH and 99.8%v/v of saline solution). CDDP was used as positive reference. Both 27 and CDDP were administered at the highest not toxic doses (7.5 and 1.5 mg/kg, respectively), as determined by MTD studies. (a) Average tumor weight (g) after 20 days of treatment with control or compounds. (b) Percentage of reduction in tumor growth after 20 days of treatment with respect to control mice. (c) Body weight changes. The body weight changes of LLC bearing C57BL mice treated with vehicle or tested compounds. Each drug was administered daily after 9 days from the tumor cell inoculum. Weights were measured at day 1 and daily from day 9. Error bars indicate the standard deviation.
All studies involving animal testing were carried out in accordance with the ethical guidelines for animal research adopted by the University of Padua, acknowledging the Italian regulation (D.L.G.S. 116/92) and European Directive 86/609/EEC as to the animal welfare and protection and the related codes of practice. […]

[2] = Body weight changes of LLC bearing mice; format: in vivo; details: LLC bearing C57BL mice, 27 daily 7.5 mg/kg ip
Source text: as §1, with “Control mice received the vehicle (0.2%v/v EtOH and 99.8%v/v of a saline solution), whereas treated groups received daily doses of 27 (7.5 mg · kg^−1 in the vehicle solution composed of 0.2%v/v EtOH and 99.8%v/v of saline solution) or CDDP (1.5 mg · kg^−1 in saline solution). Tumor growth was estimated at day 20 (Fig. 7a).” left out
Figure 7 In vivo testing of compound 27. […] At day 20, animals were sacrificed (i.e., before tumor can cause the animal discomfort), the legs were amputated at the proximal end of the femur, and the inhibition of tumor growth was determined according to the difference in weight of the tumor-bearing leg and the healthy leg of the animals expressed as % referred to the control animals. […] Both 27 and CDDP were administered at the highest not toxic doses (7.5 and 1.5 mg/kg, respectively), as determined by MTD studies. […] Weights were measured at day 1 and daily from day 9. […]

[3] = MTD studies (highest not toxic dose); format: in vivo; details: C57BL, mouse, in vivo; daily ip; read-out: Highest not toxic dose as determined by MTD studies

SMILES	Selectivity profile (kinases targeted) in primary screening (panel of 48 kinases)	Inhibition of tumor growth (%) ([1]; daily ip from day 9, day 20, versus vehicle control)	Average tumor weight (mean±S.D., g) ([1]; daily ip from day 9, day 20)	Body weight loss [2]	MTD [3]
O=C(Nc1ccccc1)Nc1ccc(Nc2cc(-c3ccccc3)ncn2)cc1 [Compound 19]	class III RTK	–	–	–	–
O=C(CN1CCOCC1)Nc1cccc(-c2cc(Nc3ccc(NC(=O)Nc4ccccc4)cc3)ncn2)c1 [Compound 27]	–	84.7%	0.075 ± 0.03 g	< 10%	7.5 mg/kg
